Columns and labels:
Pythium aphanidermatum = experiment: Polyelectrolyte formulation against Pythium aphanidermatum in Chrysanthemum soil
Protocol: Soil was artificially infected with Pythium aphanidermatum spores using well known methods. Crates of 40×60 cm each were filled with infected soil. Transplants of Chrysanthemum were planted after the artificial infection. Each plot consisted of 2 crates with each 15 plants (30 plants per plot). The trial was conducted in four replicates. A single application was done just after transplant by spraying the AllyloCal polyelectrolyte complex over the crop at 1000 l/ha. Immediately after the treatment, the products were rinsed in the soil with 3 liter of water per m^2. The applied concentration in the spray suspension was 1000 ppm of natamycin. After 10 days the numbers of healthy, diseased and dead plants were counted.
At the end of the trial, after 44 days, the average plant height, the average plant weight and the rooting (in percentage of the bottom of the crates covered with roots) were measured.

most fungi = settings: cited from earlier work
Agaricus bisporus = experiment: Polyelectrolyte formulation applied on mushroom growth substrate: total yield of mushrooms; assay type: in vivo; settings: natamycin 500 ppm where present
Protocol: Naturally contaminated Phase III compost inoculated with mushroom spawn of the edible mushroom species Agaricus bisporus prepared using well known methods was obtained from a local Dutch grower
Formulations described in Table 3 were generated as described in Example 1 for CitoCal.
Boxes with a size of 30 (1)×25 (b)×10 (h) cm were filled with the Phase III compost and incubated for 4 days at a temperature of 21° C. in the dark. After this incubation period, the white mushroom mycelium was visible on the surface of the compost. The compost was covered with 3 cm of casing prepared using well known methods after which 30 ml of the different formulations was sprayed onto the casing. Each formulation was examined in duplicate. The next day, 200 ml of water was added to each box after which the boxes were incubated for 7 days at 21° C. in the dark allowing the mycelium to grow to the surface of the casing. After this period the white mushroom mycelium was visible at the surface of the casing. The boxes were further incubated in the dark at a temperature of 18° C.
Dehydration of the casing surface was prevented by spraying sufficient and equal amounts of water (circa 10 ml) onto the casing in each box every few days using well known methods. […] During a period of 46 days mushrooms were harvested every day; the total yield was determined by measuring the weight of the mushrooms.

[1] = neutral aqueous systems; cited from earlier work
[2] = 10 days after infection, n = 120, single spray at 1000 l/ha, 1000 ppm natamycin
[3] = compared with the untreated plants (n = 120), after 44 days
[4] = end of the trial, after 44 days

SMILES: C[C@@H]1C/C=C/C=C/C=C/C=C/[C@H](O[C@@H]2O[C@H](C)[C@@H](O)[C@H](N)[C@@H]2O)C[C@@H]2O[C@](O)(C[C@@H](O)C[C@H]3O[C@@H]3/C=C/C(=O)O1)C[C@H](O)[C@H]2C(=O)O [Natamycin, natamycin]
- Dead plants (%) (Pythium aphanidermatum; [2]): 6%
- Diseased plants (%) (Pythium aphanidermatum; [2]): 34%
- Healthy plants (%) (Pythium aphanidermatum; [2]): 60%
- Percentage improvement of plant height (%) (Pythium aphanidermatum; [3]): 5.5%
- Percentage improvement of plant rooting (%) (Pythium aphanidermatum; [3]): 2.3%
- Percentage improvement of plant weight (%) (Pythium aphanidermatum; [3]): 3.9%
- average plant height (Pythium aphanidermatum; [4]): 59.9 cm
- average plant weight (Pythium aphanidermatum; [4]): 43.1 grams
- Minimal Inhibitory Concentration (MIC) (most fungi): less than 10 ppm
- Total yield (gram/2 boxes) (Agaricus bisporus; total mushroom weight after 46 days of incubation, 30 ml formulation sprayed onto casing, naturally contaminated Phase III compost): 359 gram/2 boxes
- Yield increase (%) (Agaricus bisporus; versus Control, 46 days of incubation): −1.4%
- solubility [1]: 30-40 ppm

Source: US20160192643A1, “NEW ANTIFUNGAL COMPOSITION FOR TREATMENT OF SOIL” (CERADIS B.V., priority 2013, published 2016)
